Data as given in US20090017489A1, “Methods For Modulating The Development Of Dopamine Neuron By The Dopamine D2 Receptor And Compositions Thereof” (Korea University Industry And Academy Cooperation Foundation, priority 2006, published 2009).
Entries after “also recorded” stand apart in the source; their conditions may differ.

Columns and labels:
[1] = system: D2R-mediated Nurr1 activation; test: NurRE-dependent luciferase reporter gene activation assay in HEK293T cells transfected with D2R, Nurr1 and NurRE-luc; assay type: cell-based
Description: To investigate the effect of D2R on the number of TH-positive neurons and Nurr1 expression, Nur response element (NurRE)-dependent reporter gene activation assay was carried out to determine whether or not D2R activation might induce Nurr1 activation (Philips et al, Mol Cell Biol., 1997, 17:5946-5951; Maira et al, Mol Cell Biol., 1999, 19:7549-7557). HEK293T cells distributed from Korean cell line Bank were cultured in DMEM (Dulbeco's modified eagle's medium; Invitrogen, Carlsbad, Calif.) supplemented with 10% FBS (fetal bovine serum; Invitrogen, Carlsbad, Calif.) and transfected the same with dopamine receptors, Nurr1, and NurRE gene using a jetPEI transfection reagent (Qbiogene, Carlsbad, Calif.). In detail, 5˜7×10^5 cells confluent monolayers of HEK293 cells were transfected with 1.5 μg of pSV-D2R or pSV-D1R, 1.5 μg of pCMX-Nurr1, 1.5 μg of pXP1-luc containing POMC gene promoter and NurRE (pXP1-NurRE-luc), and 0.5 μg of pCH110. In case of the transfection with Ras dominant-negative mutant, cells were transfected with 1.0 μg of pMT-RasN17 or pSK-null vector, 1.0 μg of pSV-D2R, 1.0 μg of pCMX-Nurr1, 1.0 μg of pXP1-NurRE-luc, and 0.5 μg of pCH110. After 3 hours, the transfection mixture was replaced with fresh growth medium. Assays were performed 48 hours after transfection. Cells were preincubated overnight in serum-free growth medium before treatment with agonists. The cells were treated with various concentrations of dopamine or SKF38393, respectively, for 6 hours at 37° C. with or without preincubation of haloperidol (1 μM for 5 minutes), pertussis toxin (PTX) (100 ng/ml for 12 hours), H-89 (1 μM for 20 minutes), and PD98059 (10 μM for 30 minutes). After treatment, the cells were lysed and assayed for luciferase activity using the luciferase assay system (Promega, Madison, Wis.), and luminescence was measured using a 96-well luminometer (Microlumat; EG & Berthold, Bad Wilbad, Germany).
The data obtained were fitted to a sigmoid curve with a variable slope factor using nonlinear squares regression in GraphPad Prism software, which is shown in FIG. 5.

[2] = system: TH-positive neurons in primary mesencephalic cultures from WT and D2R−/− mice; test: MPP+ treatment of primary mesencephalic dopaminergic neuronal cultures, TH-positive cell counting; assay type: cell-based, mouse; conditions: for number of surviving TH-positive neurons: 10 μM MPP+, 24 hours
Text: (§1) D2R−/− mice and wild-type (WT) mice were obtained by mating D2R−/− mice and heterozygous mice, purchased from Institut de Genetiqul et Biologie Moleculaire et celluaire (Strasbourg, France), and their genotypes were identified by Southern hybridization analyses (An J J et al., Mol Cell Neurosci. 2004, 25: 732-741). Insemination was confirmed by vaginal plug and considered to be embryonic day 0 (E0). Pregnant mothers were killed at E14 in accordance with Society for Neuroscience Guidelines. To prepare primary mesencephalic neuronal cultures, the mesencephalon dissected from 14 day gestation mouse embryo was incubated with 0.1% of trypsin in HBSS for 10 minutes at 37° C. and triturated with a constricted Pasteur pipette in high-glucose DMEM media supplemented with 10% FBS (Invitrogen, San Diego, Calif.), 1.4 mM L-glutamine, and 6.0 g/L glucose. The neurons were plated at 1.0×10^5 cells per 18×18 mm coverslip (Marienfeld, Lauda-Konigshofen, Germany) or 2.0×10^5 cells per six-well plates precoated with 50 μg/ml poly-D-lysine and 2 μg/ml laminin (Sigma, St. Louis, Mo.). The neurons were maintained at 37° C. in a humidified 5% CO2 atmosphere in Neurobasal media supplemented with B27 and GlutaMax-1.
To determine whether the absence of dopamine D2 receptor (D2R) might affect the number of dopaminergic neurons, dopaminergic neurons, which were isolated from mesencephalons of wild-type (WT) and D2R−/− embryonic mice, were incubated on slides with 1.0×10^5 cells and precoated with 50 μg/ml poly-D-lysine and 2 μg/ml laminin (Sigma, St. Louis, Mo.) at 37° C. for 5 days, followed by performing immunofluorescence staining. […] Using a microscope equipped with an metamorph imaging system (Universal Imaging Corporation, West Chester, Pa.) in 20 randomly selected fields per each slide, cell counts and morphometric analysis were made in randomly selected unbiased counting frames (>40 frames out of 81 grids were counted). […]

[3] = system: TH-positive dopaminergic neurons in mesencephalic cultures from WT and D2R−/− mice; test: Number of TH-positive neurons and neurite length in primary mesencephalic cultures; assay type: cell-based, mouse
Text: as §1
To determine whether the absence of dopamine D2 receptor (D2R) might affect the number of dopaminergic neurons, dopaminergic neurons, which were isolated from mesencephalons of wild-type (WT) and D2R−/− embryonic mice, were incubated on slides with 1.0×10^5 cells and precoated with 50 μg/ml poly-D-lysine and 2 μg/ml laminin (Sigma, St. Louis, Mo.) at 37° C. for 5 days, followed by performing immunofluorescence staining. The immunofluorescence staining was performed such that primarily cultured dopaminergic neurons were fixed with 4% paraformaldehyde for 20 minutes at room temperature (RT) and blocked for 1 hour in PBS containing 5% normal horse serum and 0.2% Triton X-100. Then, the neurons were incubated with a rabbit polyclonal anti-tyrosine hydroxylase (TH) (1:1000; Pel-Freez, Rogers, Ark.) in PBS containing 1% normal horse serum and 0.2% Triton X-100 at 4° C. for over 16 hours, and followed by staining according to avidin-biotin immunohistochemical procedures (Vector Laboratories, Burlingame, Calif.). Using a microscope equipped with an metamorph imaging system (Universal Imaging Corporation, West Chester, Pa.) in 20 randomly selected fields per each slide, cell counts and morphometric analysis were made in randomly selected unbiased counting frames (>40 frames out of 81 grids were counted).
Thereafter, the treated cells were fixed and stained in the same manner as in EXAMPLE 2 for counting the number TH-positive cells and analyzing the neuritic shape (FIG. 6A).
Thereafter, the neurons were treated with 1 μM quinpirol.

[4] = system: phosphorylated ERK (p-ERK) in mesencephalic neurons from WT and D2R−/− mice; test: ERK phosphorylation in mesencephalic neurons (immunofluorescence and Western blot); assay type: cell-based, mouse; conditions: Western blot
Description: Then, cells were fixed in the same manner as in EXAMPLE 2, a rabbit polyclonal anti-TH (1:1000; Pel-Freez) and a mouse monoclonal anti-phosphorylated ERK (p-ERK) (E10; 1:200; Cell Signaling, Beverly, Mass.) were reacted at 4° C. for 12 hours. Thereafter, the resultant neurons were stained at RT for 1 hour with two fluorescent antibodies, that is, Alexa Fluor 568 goat anti-rabbit IgG and Alexa Fluor 488 goat anti-mouse IgG (1:200; Molecular Probes, Eugene, Oreg.). After staining, ERK-positive neurons among TH-positive neurons were examined.
To observe immunofluorescent images, a confocal microscope system (Nikon Eclipse fluorescence microscope, TE2000-U, Nikon, Kanagawa, Japan; Ultraview RS confocal scanner, Perkin elmer, Wellesley, Mass.) or a fluorescence microscope (Axiovert 2000 microscope with epifluorescence unit, Zeiss, Zena, Germany) was used. The Western blot analysis was carried out in the following conditions. […] The resultant mixture was homogenized with probe type sonicator on ice, and followed by centrifugation at 13,000×g for 10 minutes at 4° C. Protein (50 μg), as measured by Bradford protein assay, was subjected to electrophoresis on 10% SDS-PAGE. […]

[5] = system: dopamine D1 receptor (D1R)-mediated Nurr1 activation; test: NurRE-dependent luciferase reporter gene activation assay in HEK293T cells transfected with D1R; assay type: cell-based
Description: To investigate the effect of D2R on the number of TH-positive neurons and Nurr1 expression, Nur response element (NurRE)-dependent reporter gene activation assay was carried out to determine whether or not D2R activation might induce Nurr1 activation (Philips et al, Mol Cell Biol., 1997, 17:5946-5951; Maira et al, Mol Cell Biol., 1999, 19:7549-7557). HEK293T cells distributed from Korean cell line Bank were cultured in DMEM (Dulbeco's modified eagle's medium; Invitrogen, Carlsbad, Calif.) supplemented with 10% FBS (fetal bovine serum; Invitrogen, Carlsbad, Calif.) and transfected the same with dopamine receptors, Nurr1, and NurRE gene using a jetPEI transfection reagent (Qbiogene, Carlsbad, Calif.). In detail, 5˜7×10^5 cells confluent monolayers of HEK293 cells were transfected with 1.5 μg of pSV-D2R or pSV-D1R, 1.5 μg of pCMX-Nurr1, 1.5 μg of pXP1-luc containing POMC gene promoter and NurRE (pXP1-NurRE-luc), and 0.5 μg of pCH110. […] After treatment, the cells were lysed and assayed for luciferase activity using the luciferase assay system (Promega, Madison, Wis.), and luminescence was measured using a 96-well luminometer (Microlumat; EG & Berthold, Bad Wilbad, Germany).

[6] = PD98059 treatment versus control without PD98059
[7] = D2R−/− mice, 1 μM haloperidol for 5 minutes then 1 μM quinpirole, versus control without haloperidol
[8] = WT and D2R−/− mice treated with haloperidol

O=S(=O)(NCCNC/C=C/c1ccc(Br)cc1)c1cccc2cnccc12 [H-89]
D2R-induced NurRE-dependent luciferase activation in the presence of PKA inhibitor ([1]; H-89 1 μM for 20 minutes): did not give rise to a significant change

C[n+]1ccc(-c2ccccc2)cc1 [MPP^+, 1-Methyl-4-phenylpyridinium]
loss of dopaminergic neurons ([2]; 1 to 10 μM MPP+ for 24 hours, D2R−/− versus WT cultures): more significant loss of dopaminergic neurons in the D2R−/− mice than in WT mice
number of surviving TH-positive neurons ([2]; D2R−/− mice cultures): 40%
number of surviving TH-positive neurons ([2]; WT mice cultures): 54%

COc1cccc(-c2cc(=O)c3ccccc3o2)c1N [PD98059]
Nurr1 activation by dopamine in the presence of MEK inhibitor ([1]; PD98059 10 μM for 30 minutes): noticeably reduced
average length of neurites [3, 6]: reduced
number of TH-positive neurons [3, 6]: slightly reduced
phosphorylated ERK after quinpirole with MEK inhibitor ([4]; 50 μM PD98059 for 30 minutes plus quinpirole): neither WT nor D2R−/− neurons showed phosphorylated ERK

Oc1cc2c(c(Cl)c1O)CCNCC2c1ccccc1 (centres unmarked) [SKF81297]
Nurr1 activation by D1R-specific agonist [5]: no significant change

NCCc1ccc(O)c(O)c1 [dopamine]
luciferase activation relative to control group ([1]; HEK293T transfected with D2R, Nurr1 and NurRE-luc, dopamine at various concentrations, 6 hours): about 180%
change in luciferase activation ([1]; dopamine, in the absence of Nurr1 or D2R): no change in the activation

O=C(CCCN1CCC(O)(c2ccc(Cl)cc2)CC1)c1ccc(F)cc1 [haloperidol]
D2R-mediated Nurr1 activation by dopamine after antagonist ([1]; haloperidol 1 μM preincubation for 5 minutes): reduced; also recorded: inhibited or decreased
neuritic extension [3, 7]: no changes
number of TH-positive neurons [3, 7]: no changes
average length of the neurites [3, 8]: decreased or showed insignificant changes
number of dopaminergic neurons [3, 8]: decreased or showed insignificant changes
phosphorylated ERK after quinpirole with antagonist ([4]; 1 μM haloperidol for 5 minutes plus quinpirole): neither WT nor D2R−/− neurons showed phosphorylated ERK
